Measured values from patent US20100240537A1, “Substituted 6-(alkylbenzylamino)purine derivatives for use as cytokinin receptor antagonists and preparations containing these derivatives” (priority 2007, published 2010).

Experiments:
CRE1/AHK4 = molecular target: T1, CRE1/AHK4 (Arabidopsis thaliana, UniProt Q9C5U0); assay: Activation of cytokinin receptor CRE1/AHK4 in E. coli KMI001 (β-galactosidase reporter); format: cell-based; conditions: for EC50 CRE1/AHK4 (activation of cytokinin receptor): E. coli KMI001 pIN-III-AHK4, 17 h incubation, n.i. means without interaction
T1 construct: expressed in transfected cells; host or cells: Escherichia coli KMI001, plasmid pIN-III-AHK4
T1 sequence (Q9C5U0 whole entry): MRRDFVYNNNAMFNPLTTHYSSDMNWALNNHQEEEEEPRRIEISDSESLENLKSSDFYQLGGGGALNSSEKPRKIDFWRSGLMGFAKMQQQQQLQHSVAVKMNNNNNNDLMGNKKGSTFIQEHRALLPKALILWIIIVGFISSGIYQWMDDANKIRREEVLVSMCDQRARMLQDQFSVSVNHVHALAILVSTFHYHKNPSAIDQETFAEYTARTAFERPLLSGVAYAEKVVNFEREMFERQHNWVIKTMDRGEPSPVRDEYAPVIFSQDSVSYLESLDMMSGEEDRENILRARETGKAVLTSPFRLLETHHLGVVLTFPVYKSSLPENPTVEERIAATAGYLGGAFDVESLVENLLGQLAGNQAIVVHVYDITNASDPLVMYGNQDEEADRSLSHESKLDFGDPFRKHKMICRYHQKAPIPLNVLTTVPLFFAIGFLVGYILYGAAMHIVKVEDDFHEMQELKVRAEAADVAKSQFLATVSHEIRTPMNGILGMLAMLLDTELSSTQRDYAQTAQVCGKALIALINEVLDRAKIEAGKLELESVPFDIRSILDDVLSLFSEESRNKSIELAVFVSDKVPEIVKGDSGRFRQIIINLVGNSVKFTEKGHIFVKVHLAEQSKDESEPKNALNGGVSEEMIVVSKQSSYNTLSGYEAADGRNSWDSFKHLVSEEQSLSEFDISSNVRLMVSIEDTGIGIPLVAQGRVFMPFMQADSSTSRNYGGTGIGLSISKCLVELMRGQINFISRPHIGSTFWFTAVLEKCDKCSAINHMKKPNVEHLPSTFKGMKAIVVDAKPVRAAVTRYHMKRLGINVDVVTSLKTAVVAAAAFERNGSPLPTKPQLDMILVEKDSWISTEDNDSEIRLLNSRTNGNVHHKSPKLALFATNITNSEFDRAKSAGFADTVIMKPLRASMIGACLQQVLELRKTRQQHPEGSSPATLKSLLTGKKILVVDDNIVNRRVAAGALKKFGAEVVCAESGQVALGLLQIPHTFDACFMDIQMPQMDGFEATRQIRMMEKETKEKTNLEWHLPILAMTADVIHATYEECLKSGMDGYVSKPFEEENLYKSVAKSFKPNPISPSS
Protocol: Escherichia coli strains KMI001 harbouring the plasmid pIN-III-AHK4 or pSTV28-AHK3 were grown overnight at 25° C. in M9 media enriched with 0.1% casamino acids to OD600˜1. The preculture was diluted 1:600 in 1 ml M9 medium containing 0.1% casamino acids and 1 μl stock solution of either the tested compound (10^−7 M−5×10^−5 M) or solvent control (DMSO, ethanol, methanol) were added. The cultures were further grown at 25° C. in microtiter plate, 200 μl per well. […] The cultures were centrifuged and 50 μl aliquots of the supernatant were transferred to microtiter plate containing 2 μl 50 mM 4-methyl umbelliferyl galactoside which was subsequently incubated for 1 h at 37° C. The reaction was stopped by adding 100 μl 0.2 M Na2CO3. Fluorescence was measured using a Fluoroscan Ascent (Labsystems, Finland) at the excitation and emission wavelengths of 365 and 460 nm, respectively. The OD600 of remaining culture was determined and β-galactosidase activity was calculated as nmol 4-methylumbelliferone×OD600^−1×h^−1.
The EC50 value, the compound concentration activating the receptor to 50%, was calculated from the obtained dose response curves. The compound functioning as cytokinin antagonists should not activate cytokinin signalling pathway. The values shown in Table 2 are means of three replicates and the entire test was repeated at least twice.

[1] = test system: A. thaliana wild-type and double receptor mutant seedlings; assay: Lateral root formation of Arabidopsis seedlings; format: in vivo, Arabidopsis thaliana; conditions: 1 and 5 nM BA alone, MS medium
Protocol: (A) Number of lateral roots formed by wild-type Arabidopsis seedlings (11 DAG)—from left: DMSO control, formation in the presence of cytokinin BA, or compound 8, and antagonism when both compounds were added. (B) Increase in number of lateral roots found with WT and double-receptor mutant seedlings grown on medium containing compound 8.
Cytokinins are known as negative regulators of root growth and development. We grew A. thaliana wild-type and double receptor mutant seedlings with decreased perception of cytokinins on MS medium containing either 1 and 5 nM cytokinin BA to confirm the cytokinin inhibitory effect on initiation of lateral roots, or 1 and 10 nM compound 8, or combination of these substances in concentrations indicated in FIG. 4A.

[2] = test system: Arabidopsis seedlings (wild-type, receptor double mutants); assay: Primary root length of Arabidopsis seedlings; format: in vivo; conditions: 1 μM
Protocol: FIG. 5 Effect of compound 8 on primary root length of Arabidopsis seedlings. Increase in the length of the primary roots observed in ahk2 ahk3 double mutant seedlings (6 DAG) grown on medium containing 1 μM compound 8.
However, when 1 μM compound 8 was applied to the growth media of ahk2 ahk3 double mutants, significant increase (about 15%) in the length of the primary roots was observed compared to untreated control (FIG. 5).

[3] = test system: erytroid leukemia cell line K-562; assay: Calcein AM cytotoxicity assay, K-562; format: cell-based, human; conditions: Homo sapiens, K562, 72 hours
Excerpt: (§1) Absence of toxic effects against mammalian (especially human) cell lines in a wide concentration range is one of the requirements on compounds intended for use in agriculture. Because toxic compounds negatively influence metabolic processes in cells, many standard cytotoxicity assays are based on measurement of metabolisation rate of various artificial substrates. Resulting product is then quantified e.g. by means of spectrometry. The assays can be easily modified for use in 96-well plates. For evaluation of cytotoxic effect of the novel substituted 6-(alkylbenzylamino)purine derivatives of this invention, a microtiter assay based on quantification of metabolisation of Calcein AM was used. The assay is widely used in drug screening programs and in chemosensitivity testing. In live cells, Calcein AM is enzymatically hydrolysed and accumulation of resulting calcein is manifested by green fluorescence.
(§2) The cells were maintained in Nunc/Corning 80 cm^2 plastic tissue culture flasks and cultured in cell culture medium (DMEM with 5 g/l glucose, 2 mM glutamine, 100 U/ml penicillin, 100 μg/ml streptomycin, 10% fetal calf serum and sodium bicarbonate).
(§3) The cell suspensions were prepared and diluted according to the particular cell type and the expected target cell density (10^4 cells per well based on cell growth characteristics) and pippetted (80 μl) into 96-well plates. Inoculates were allowed a pre-incubation period of 24 hours at 37° C., 100% humidity and 5% CO2 for stabilisation. Tested compounds were added in total volume of 20 μl of water at time zero. Usually, test compound was evaluated at six 3-fold dilutions. In routine testing, the highest concentration tested was 100 μM, the eventual changes depended on physico-chemical characteristics of the respective compound. All drug concentrations were tested in triplicates. Incubations of cells with the test compounds lasted for 72 hours at 37° C., in 5% CO2 atmosphere and 100% humidity. At the end of incubation period Calcein AM (Molecular Probes) in PBS was added into final concentration of 1 μg/ml. After another 1 hour of incubation fluorescence (FD) was measured with the Labsystem FIA Reader Fluoroscan Ascent (UK). Growth inhibition (GI) was estimated using the following equitation: GI=(mean FDdrug exposed wells−mean FDblank)/(mean FDcontrol wells−mean FDblank)×100%.

[4] = test system: breast carcinoma cell line MCF-7; assay: Calcein AM cytotoxicity assay, MCF-7; format: cell-based, human; conditions: Homo sapiens, MCF7, 72 hours
Excerpt: as §1, §2, §3

[5] = test system: wild-type Arabidopsis seeds; assay: Germination of Arabidopsis seeds; format: in vivo
Protocol: Early germination of wild-type Arabidopsis seeds cultivated on MS medium containing indicated concentrations of compound 8 after replacement from dark to white light (16 h light/8 hours dark).
Subsequent testing confirmed positive effect of the compound 8 on germination. After sowing and pretreatment in dark at 4° C., seeds were transferred to light and ambient temperature. After 30 hours more than 60% of seeds sown on medium containing 1 nM compound 8 were germinating, which was twice as much as in the case of control sown on compound 8 free medium. The number of germinating seeds was further enhanced with higher concentration of compound 8 and 80% of seeds were germinated when 10 nM compound 8 was present in the medium (FIG. 6).

SMILES	EC50 (CRE1/AHK4) [µM]	formation of lateral roots [1]	elongation of the primary root, wild-type seedlings ([2]; wild-type)	GI50 [3] [µM]	GI50 [4] [µM]	EC50 CRE1/AHK4 (activation of cytokinin receptor) (CRE1/AHK4)	increase in the length of the primary roots compared to untreated control ([2]; ahk2 ahk3 double mutants, 6 DAG)	germinating seeds ([5]; 1 nM in medium, after 30 hours in light)	germinated seeds ([5]; 10 nM in medium) [%]
c1ccc(CNc2ncnc3nc[nH]c23)cc1 [6-(benzylamino)purine]	19.7	inhibited formation of lateral roots	almost completely inhibited	> 100	> 100	–	–	–	–
Cc1cccc(CNc2ncnc3nc[nH]c23)c1O [Compound 8, 6-(2-hydroxy-3-methylbenzylamino)purine]	–	–	–	> 50	> 50	n.i.	about 15%	more than 60%	80
Cc1ccc(O)c(CNc2ncnc3nc[nH]c23)c1 [Compound 10, 6-(2-hydroxy-5-methylbenzylamino)purine]	–	–	–	> 100	> 100	n.i.	–	–	–
